Test results as given in article PMC7725824, “Fused isoselenazolium salts suppress breast cancer cell growth by dramatic increase in pyruvate-dependent mitochondrial ROS production” (Scientific Reports, 2020).
Read-outs that look alike come from different tables or passages of the source.

Experiments:
4T1 = assay: Cytotoxicity assay (MTT), 4T1; assay type: cell-based, mouse; details: read-out: Cytotoxicity, IC50, 4T1
Method: (§1) MCF-7 (human breast adenocarcinoma, estrogen-positive) and 4T1 (mouse carcinoma), as breast cancer cell lines, and H9C2 (rat cardiomyoblasts), NIH 3T3 (mouse fibroblasts), HEKa (primary human epidermal keratinocytes), MDCK (Madin-Darby Canine Kidney) cells, and A7r5 (rat vascular smooth muscle cells), as normal cell lines, were obtained from the American Type Culture Collection [ATCC] collection for use in the current study. All cell lines were cultured in Dulbecco's modified Eagle's medium (DMEM) containing 10% fetal bovine serum (FBS) and 4 mM L-glutamine at 37 °C and 5% CO2.
(§2) Cell viability was assessed by the addition of 3-(4,5-dimethylthiazol-2-yl)-2,5-diphenyltetrazolinium bromide (MTT). Briefly, cells were seeded (2–6 × 10^4 cells/ml) in 96-well plates and allowed to attach for 24 h. Solutions of test compounds were prepared and serially diluted to obtain the appropriate concentrations. The cells were treated with the test compounds at different concentrations (0.032–100 µM) and incubated for 48 h at 37 °C and 5% CO2. Then, the culture medium was removed, and medium containing 0.2 mg/ml MTT was added. After 3 h (37 °C, 5% CO2), the MTT-containing medium was removed, and 200 μl of dimethyl sulfoxide (DMSO) was immediately added to each sample. The absorbance was assessed at 540 nm using a Tecan multiplate reader Infinite 1000 (Austria). The half-maximal inhibitory concentration (IC50) of each compound was calculated using Graph Pad Prism 3.0.

[1] = Cytotoxicity assay (MTT), 3T3; assay type: cell-based, mouse; details: mouse, normal cell line, mean ± S.D., 3 experiments
Method: as §1, §2

[2] = Cytotoxicity assay (MTT), H9C2; assay type: cell-based, rat; details: rat, normal cell line, MTT, 48 h, mean ± S.D., 3 experiments
Method: as §1, §2

MCF-7 = assay: Cytotoxicity assay (MTT), MCF-7; assay type: cell-based, human; details: for IC50: read-out: Cytotoxicity, IC50, MCF-7
Method: as §1, §2

[3] = Cytotoxicity assay (MTT), A7r5; assay type: cell-based, rat; details: rat, normal cell line, mean ± S.D., 3 experiments
Method: as §1, §2

[4] = Cytotoxicity assay (MTT), MDCK; assay type: cell-based, Canine; details: dog, normal cell line, mean ± S.D., 3 experiments
Method: as §1, §2

[5] = Cytotoxicity assay (MTT), HEKa; assay type: cell-based, human; details: human, normal cell line, mean ± S.D., 3 experiments
Method: as §1, §2

NIH 3T3 = assay: Cytotoxicity assay (MTT), 3T3; assay type: cell-based, mouse; details: normal cell line, 48 h, mean ± S.D., 3 experiments
Method: as §1, §2

H9C2 = assay: Cytotoxicity assay (MTT), H9C2; assay type: cell-based, rat; details: for IC50: normal cell line, MTT, 48 h, mean ± S.D., 3 experiments
Method: as §1, §2

A7r5 = assay: Cytotoxicity assay (MTT), A7r5; assay type: cell-based, rat; details: normal cell line, 48 h, mean ± S.D., 3 experiments
Method: as §1, §2

MDCK = assay: Cytotoxicity assay (MTT), MDCK; assay type: cell-based, Canine; details: normal cell line, 48 h, mean ± S.D., 3 experiments
Method: as §1, §2

HEKa = assay: Cytotoxicity assay (MTT), HEKa; assay type: cell-based, human; details: normal cell line, 48 h, mean ± S.D., 3 experiments
Method: as §1, §2

MCF-7 cells [6] = assay: NAD+/NADH assay kit measurement; assay type: cell-based, human; details: 2 μM, 10 min
Method: The NAD^+/NADH ratio in the MCF-7 cells exposed to the test compounds (2 μM) for 10 min was measured using an NAD^+/NADH assay kit (Abcam, ab65348) according to the manufacturer's instructions.

permeabilized 4T1 cells = assay: High-resolution fluorespirometry (respiration and H2O2 flux); assay type: cell-based, mouse; details: 1 µM, pyruvate-dependent OXPHOS state
Method: High-resolution fluorespirometry was performed using an Oxygraph-2 k system (OROBOROS INSTRUMENTS, Austria). All experiments were performed at 37 °C in MiR05 medium (110 mM sucrose, 60 mM K-lactobionate, 0.5 mM EGTA, 3 mM MgCl2, 20 mM taurine, 10 mM KH2PO4, 20 mM HEPES, pH 7.1 at 30 °C, and 0.1% BSA essentially fatty acid free). The medium was reoxygenated when the oxygen concentration dropped to 80 µM. H2O2 flux was simultaneously measured with respirometry in the O2k-Fluorometer using the H2O2-sensitive probe Ampliflu Red (AmR) as described. The H2O2/O flux ratio [%] was calculated as the H2O2 flux/(0.5 O2 flux).
In permeabilized 4T1 cells, pyruvate + malate (5 and 2 mM) or glutamate + malate (10 and 2 mM) were used to determine complex I (CI)-linked LEAK (L) respiration. ADP was added to a concentration of 5 mM to determine the oxidative phosphorylation-dependent respiration (OXPHOS state). Succinate (10 mM, complex II (CII) substrate) was then added to reconstitute convergent CI&II-linked respiration. Rotenone (0.5 µM, an inhibitor of complex I) and antimycin A (2.5 µM, an inhibitor of complex III) were added to determine the CII-linked OXPHOS capacity and residual oxygen consumption (ROX), respectively. Compound 6 was added to permeabilized cells after the addition of the respective substrates in the OXPHOS state (titration experiment) or in the LEAK state. In addition, compounds 3, 6 and 7 were tested at 1 µM in the OXPHOS coupling protocol in the LEAK state. The OXPHOS coupling efficiency was calculated as: 1-Resp.rateLEAKstate/Resp.rateOXPHOSstate
The substrate-dependent flux control factor was calculated as: 1-Resp.ratebeforeadditionofrespectivesubstrate/Resp.rateafteradditionofrespectivesubstrate

MCF-7 cells [7] = assay: Fluorometric measurement of NMN level; assay type: cell-based, human; details: 2 μM, 10 min, vs control
Method: For fluorometric measurements of NMN, a previously described method was used, with minor modifications. […] The cells were washed with PBS and then lysed by adding 200 μl of 1 M HClO4 to each well and incubating at 4 °C for 20 min. The cells were harvested by scraping and transferred to a tube. The extracts were neutralized with 100 μl of 2 M KOH for 5 min at room temperature and 50 μl of 0.1 M bicine (pH 7.4) was added. The samples were centrifuged at 14 000 × g for 10 min at 4 °C, and the supernatant was collected for further analysis. The protein concentration in each sample was determined using a Bio-Rad protein assay kit. […] The reaction was incubated for 2 min at 4 °C, after which 45 μl of 88% formic acid was added, and the samples were incubated for another 10 min at 37 °C on a shaker. The fluorescence was measured using a Tecan multiplate reader Infinite 1000 (Austria) with excitation at 382 nm and emission at […].

[8] = Mus musculus, 4T1, breast cancer cell line, MTT, 48 h, mean ± S.D., 3 experiments
[9] = Homo sapiens, MCF7, breast cancer cell line, MTT, 48 h, mean ± S.D., 3 experiments
[10] = A7r5 cells (vascular smooth muscle cells)
[11] = HEKa cells (primary epidermal keratinocytes)
[12] = breast cancer cell line, MTT, 48 h, mean ± S.D., 3 experiments

## Cc1cc[n+]2[se]c(C3(O)CCCCC3)c(Br)c2c1 [Compound 4, 3-bromo-2-(1-hydroxycyclohexyl)-5-methyl-[1,2]selenazolo[2,3-a]pyridin-8-ium]
4T1; [8]
  IC50: 0.45 ± 0.02 µM
[1]; NIH 3T3 cells (fibroblasts)
  IC50 at 48 h: 0.79 ± 0.02 µM
[2]; H9C2 cells (cardiomyoblasts)
  IC50 at 48 h: 2.9 ± 0.1 µM
MCF-7; [9]
  IC50: 1.48 ± 0.04 µM
[3]; [10]
  IC50 at 48 h: 1.93 ± 0.16 µM
[4]; MDCK cells
  IC50 at 48 h: 2.54 ± 0.57 µM
[5]; [11]
  IC50 at 48 h: 2.05 ± 0.05 µM

## OC(c1ccccc1)(c1ccccc1)c1[se][n+]2ccccc2c1Br [Compound 2, 3-bromo-2-(hydroxydiphenylmethyl)-[1,2]selenazolo[2,3-a]pyridin-8-ium]
4T1; [8]
  IC50: 1.1 ± 0.08 µM
[1]; NIH 3T3 cells (fibroblasts)
  IC50 at 48 h: 1.6 ± 0.3 µM
[2]; H9C2 cells (cardiomyoblasts)
  IC50 at 48 h: 4.2 ± 0.3 µM
MCF-7; [9]
  IC50: 0.39 ± 0.03 µM
[3]; [10]
  IC50 at 48 h: 1.87 ± 0.26 µM
[4]; MDCK cells
  IC50 at 48 h: 6.27 ± 0.29 µM
[5]; [11]
  IC50 at 48 h: 2.78 ± 0.08 µM

## OC1(c2[se][n+]3ccccc3c2Br)CCCCCC1.[Br-] [Compound 5, 3-Bromo-2-(1-hydroxycycloheptyl)-[1,2]selenazolo[2,3-a]pyridinium bromide]
4T1; [8]
  IC50: 0.41 ± 0.05 µM
[1]; NIH 3T3 cells (fibroblasts)
  IC50 at 48 h: 0.98 ± 0.03 µM
[2]; H9C2 cells (cardiomyoblasts)
  IC50 at 48 h: 9.3 ± 0.2 µM
MCF-7; [9]
  IC50: 0.29 ± 0.01 µM
MCF-7; cycloheptyl (5) versus cyclohexyl (4)
  increase of cytotoxicity against MCF-7 cells: approximately 3 times
[3]; [10]
  IC50 at 48 h: 1.92 ± 0.44 µM
[4]; MDCK cells
  IC50 at 48 h: 1.51 ± 0.37 µM
[5]; [11]
  IC50 at 48 h: 2.01 ± 0.08 µM

## 3-bromo-2-(2-hydroxy-2-methylethyl)-[1,2]selenazolo[2,3-a]pyridinium chloride [Compound 1]
4T1; [12]
  IC50: 0.3 ± 0.03 µM
NIH 3T3
  IC50: 0.13 ± 0.02 µM
H9C2
  IC50: 1.8 ± 0.1 µM
MCF-7; [12]
  IC50: 3.1 ± 0.03 µM
A7r5
  IC50: 2.89 ± 0.42 µM
MDCK
  IC50: 3.26 ± 0.4 µM
HEKa
  IC50: 2.31 ± 0.02 µM

## O=[Se](O)O [Na2SeO3, Sodium selenite, reference compound]
4T1; [12]
  IC50: 4.9 ± 0.6 µM
NIH 3T3
  IC50: 22.3 ± 3.6 µM
H9C2
  IC50: 1.5 ± 0.3 µM
MCF-7; [12]
  IC50: 17.1 ± 2.4 µM
A7r5
  IC50: 39.4 ± 8.2 µM
MDCK
  IC50: 6.3 ± 0.4 µM
HEKa
  IC50: 13.3 ± 1.1 µM

## COc1cccc2c1C(=O)c1c(O)c3c(c(O)c1C2=O)C[C@@](O)(C(=O)CO)C[C@@H]3O[C@H]1C[C@H](N)[C@H](O)[C@H](C)O1 [Doxorubicin, reference compound]
4T1; [8]
  IC50: 0.16 ± 0.06 µM
[1]; NIH 3T3 cells (fibroblasts)
  IC50 at 48 h: 0.75 ± 0.09 µM
[2]; H9C2 cells (cardiomyoblasts)
  IC50 at 48 h: 11 ± 1 µM
H9C2; tumor cells versus cardiomyocytes
  IC50 values in tumor cells versus cardiomyocytes, fold lower: 10–100 fold
MCF-7; [9]
  IC50: 1 ± 0.3 µM
[3]; [10]
  IC50 at 48 h: 1.82 ± 0.35 µM
[4]; MDCK cells
  IC50 at 48 h: 57 ± 6.1 µM

## Cn1cc[n+]2[se]c(C3(O)CCCCC3)c(Br)c12 [Compound 7, 3-bromo-N-methyl-2-(1-hydroxycyclohexyl)[1,2]selenazolo[2,3-b]imidazolium bromide]
4T1; Mus musculus, 4T1, 48 h
  IC50: 0.94 ± 0.06 µM
[1]
  IC50 at 48 h: 2.2 ± 0.3 µM
MCF-7 cells [6]
  NAD+/NADH ratio higher than in untreated cells: 1.65 times
MCF-7 cells [6]; vs control
  decrease in NAD+ level: without affecting
  decrease in NADH level: induced a decrease
[2]
  IC50 at 48 h: 0.67 ± 0.02 µM
MCF-7; Homo sapiens, MCF7, 48 h
  IC50: 1.48 ± 0.02 µM
[3]
  IC50 at 48 h: 1.66 ± 0.25 µM
Permeabilized 4T1 cells
  increase in H2O2/O ratio: immediate significant increases
  increase in H2O2 production: immediate significant increases
MCF-7 cells [7]
  decrease in NMN levels: not
[4]
  IC50 at 48 h: 4.28 ± 0.34 µM
[5]
  IC50 at 48 h: 2.19 ± 0.09 µM
